Structures can show the parent of a compound that is named as a salt. Some results are limits rather than exact numbers.

As a reminder, the melting point is the temperature of the solid-liquid transition. Turning to `CN1CCC(c2c[nH]c3ccc(Sc4ccccc4)cc23)CC1`, the melting point is 147 to 150 °C.

As for `CN1CCC(c2c[nH]c3ccc(NC(=O)c4ccccc4)cc23)CC1.O=C(O)C(=O)O`, the melting point is 130 °C.

As for `CN1CCC(c2c[nH]c3ccc(NC(=O)c4ccccc4Cl)cc23)CC1.O=C(O)/C=C/C(=O)O`, the melting point was 209 °C (dec.).

Regarding `CN1CCC(c2c[nH]c3ccc(NC(=O)c4cccc(Cl)c4)cc23)CC1.O=C(O)/C=C/C(=O)O`, the melting point was 185 °C (dec.).

Turning to `CN1CCC(c2c[nH]c3ccc(NC(=O)c4ccc(Cl)cc4)cc23)CC1.O=C(O)/C=C/C(=O)O`, the melting point was 163 °C (dec.).

In the case of `COc1ccccc1C(=O)Nc1ccc2[nH]cc(C3CCN(C)CC3)c2c1.O=C(O)/C=C/C(=O)O`, the melting point is 90 °C (dec.).

For `COc1cccc(C(=O)Nc2ccc3[nH]cc(C4CCN(C)CC4)c3c2)c1.O=C(O)/C=C/C(=O)O`, the melting point is 152 °C (dec.).

`COc1ccc(C(=O)Nc2ccc3[nH]cc(C4CCN(C)CC4)c3c2)cc1.O=C(O)/C=C/C(=O)O`: the melting point was 151 °C (dec.).

Regarding `CN1CCC(c2c[nH]c3ccc(NC(=O)c4ccco4)cc23)CC1.O=C(O)/C=C/C(=O)O`, the melting point is 114 °C (dec.).

`CN1CCC(c2c[nH]c3ccc(C(=O)c4ccc(F)cc4)cc23)CC1` showed a melting point of 89 °C.

The molecule `CN1CCC(c2c[nH]c3ccc(NC(=O)Cc4ccccc4)cc23)CC1.O=C(O)C(=O)O` showed a melting point of less than 90 °C.

The molecule `CCN1CCC(c2c[nH]c3ccc(NC(=O)c4ccco4)cc23)CC1` had a melting point of 178 to 179 °C.

`CCN1CCC(c2c[nH]c3ccc(NC(=O)c4ccc(F)cc4)cc23)CC1.O=C(O)/C=C/C(=O)O`: the melting point lay within 152 to 155 °C.

On to `CN1CCC(c2c[nH]c3ccc(NC(=O)c4ccc(F)cc4Cl)cc23)CC1`, for which the melting point fell in the range of 159 to 162 °C.

The molecule `Cc1ccc(C(=O)c2ccc3[nH]cc(C4CCN(C)CC4)c3c2)cc1` displayed a melting point of 92 °C.

Molecule `CN1CCC(c2c[nH]c3ccc(C(=O)c4ccc(C(F)(F)F)cc4)cc23)CC1` returned a melting point of 160 to 162 °C.

`CN1CCC(c2c[nH]c3ccc(C(=O)c4ccc(OC(F)(F)F)cc4)cc23)CC1` displayed a melting point of 172 to 175 °C.

As for `CN1CCC(c2c[nH]c3ccc(C(=O)c4ccc(N(C)C)cc4)cc23)CC1`, the melting point lay in the range of 103 to 104 °C.

`CN1CCC(c2c[nH]c3ccc(C(=O)c4ccc5ccccc5c4)cc23)CC1` showed a melting point of 92 °C.

As to `CN1CCC(c2c[nH]c3ccc(C(=O)c4ccccn4)cc23)CC1`, the melting point was determined as 90 °C.

Regarding `CN1CCC(c2c[nH]c3ccc(NC(=O)c4cccc5ccccc45)cc23)CC1.Cl`, the melting point lay within 193 to 203 °C.

On to `CN1CCC(c2c[nH]c3ccc(NC(=O)c4ccc5ccccc5c4)cc23)CC1`, for which the melting point lay within 153 to 155.5 °C.

As for `O=C(Nc1ccc2[nH]cc(C3=CCNCC3)c2c1)c1ccc(F)cc1`, the melting point is 241 °C (dec.).

Molecule `O=C(Nc1ccc2[nH]cc(C3CCNCC3)c2c1)c1ccc(F)cc1` gave a melting point of 229 to 230 °C.

`COc1ccc(Sc2ccc3[nH]cc(C4CCN(C)CC4)c3c2)cc1` returned a melting point of 160 to 162 °C.

`CN1CCC(c2c[nH]c3ccc(C(=O)c4ccc(Cl)cc4)cc23)CC1` came in with a melting point of 133 °C.

Turning to `CN1CC=C(c2c[nH]c3ccc(NS(C)(=O)=O)cc23)CC1`, the melting point is 210 to 214 °C.

`CN1CC=C(c2cn(C)c3ccc(NS(C)(=O)=O)cc23)CC1` displayed a melting point of 198 to 202 °C.

As for `Cc1[nH]c2ccc(NS(C)(=O)=O)cc2c1C1=CCN(C)CC1`, the melting point was in the range of 176 to 184 °C.

Consider `CCS(=O)(=O)Nc1ccc2[nH]cc(C3=CCN(C)CC3)c2c1`, for which the melting point is 224 to 226 °C.

`CN1CC=C(c2c[nH]c3ccc(NS(=O)(=O)N(C)C)cc23)CC1`: the melting point was 207 to 208 °C.

On to `CCN1CC=C(c2c[nH]c3ccc(NS(C)(=O)=O)cc23)CC1`, for which the melting point is 218 to 219 °C (dec.).

`CCCN1CC=C(c2c[nH]c3ccc(NS(C)(=O)=O)cc23)CC1`: the melting point is 217 to 218.5 °C (dec.).

`CC(C)N1CC=C(c2c[nH]c3ccc(NS(C)(=O)=O)cc23)CC1`: the melting point was 211 to 213 °C (dec.).

For the molecule `CCCCN1CC=C(c2c[nH]c3ccc(NS(C)(=O)=O)cc23)CC1`, the melting point was in the range of 202 to 204 °C.

`CN1CCC(c2c[nH]c3ccc(SCc4ccccc4)cc23)CC1` had a melting point of 138 to 141 °C.

Consider `CN1CCC(c2c[nH]c3ccc(NS(C)(=O)=O)cc23)CC1.O=C(O)C(=O)O`, for which the melting point is 119.1 °C.

Molecule `Cc1[nH]c2ccc(NS(C)(=O)=O)cc2c1C1CCN(C)CC1` yielded a melting point of 124 to 128 °C.

With `CCS(=O)(=O)Nc1ccc2[nH]cc(C3CCN(C)CC3)c2c1`, the melting point was 176 to 178 °C.

With `CN1CCC(c2c[nH]c3ccc(NS(=O)(=O)N(C)C)cc23)CC1`, the melting point was 179 to 181 °C (dec.).

`CCN1CCC(c2c[nH]c3ccc(NS(C)(=O)=O)cc23)CC1` displayed a melting point of 179 to 181 °C.

`CCCN1CCC(c2c[nH]c3ccc(NS(C)(=O)=O)cc23)CC1` displayed a melting point of 87 to 90 °C.

For the molecule `CCCCN1CCC(c2c[nH]c3ccc(NS(C)(=O)=O)cc23)CC1`, the melting point was 78 °C.

With `CN1CCC(c2c[nH]c3ccc(NS(=O)(=O)c4ccccc4)cc23)CC1`, the melting point was 246 to 249 °C (dec.).

Molecule `CN1CCC(c2c[nH]c3ccc(Sc4ccccn4)cc23)CC1` came in with a melting point of 83 °C.

The molecule `CN1CCC(c2c[nH]c3ccc(NS(=O)(=O)c4ccc(I)cc4)cc23)CC1` gave a melting point greater than 250 °C.

Consider `CN1CCC(c2c[nH]c3ccc(N(S(=O)(=O)C(F)(F)F)S(=O)(=O)C(F)(F)F)cc23)CC1.Cl`, for which the melting point is 175 to 185 °C (dec.).

With `CN1CCC(c2c[nH]c3ccc(Sc4ccc(Cl)cc4)cc23)CC1`, the melting point lay within 148 to 150 °C.

Consider `CN1CCC(c2c[nH]c3ccc(NC(=O)Nc4ccccc4)cc23)CC1.Cl`, for which the melting point was in the range of 215 to 220 °C.

In turn, `CN1CCC(c2c[nH]c3ccc(C(=O)c4ccccc4)cc23)CC1` displayed a melting point of 101 °C.

With `CCCCC(=O)c1ccc2[nH]cc(C3CCN(C)CC3)c2c1.Cl`, the melting point was 242 to 245 °C.

Molecule `CN1CCC(c2c[nH]c3ccc(N4C(=O)c5ccccc5C4=O)cc23)CC1.O=C(O)C(=O)O` returned a melting point of 224 °C.

In turn, `CC(=O)Nc1ccc2[nH]cc(C3=CCN(C)CC3)c2c1` gave a melting point of 186 to 189 °C.

`CCC(=O)Nc1ccc2[nH]cc(C3=CCN(C)CC3)c2c1.O=C(O)/C=C/C(=O)O` had a melting point of 170 to 173 °C.

Take `CN1CCC(c2c[nH]c3ccc(C(=O)Cc4ccccc4)cc23)CC1`: the melting point was 69 °C.

For the molecule `CN1CC=C(c2c[nH]c3ccc(NC(=O)c4ccccc4)cc23)CC1`, the melting point is greater than 250 °C.

Take `CN1CC=C(c2c[nH]c3ccc(NC(=O)c4ccc(Cl)cc4)cc23)CC1`: the melting point was in the range of 224 to 226 °C.

For `COc1ccc(C(=O)Nc2ccc3[nH]cc(C4=CCN(C)CC4)c3c2)cc1`, the melting point was 232 °C (dec.).

For the molecule `CN1CC=C(c2c[nH]c3ccc(NC(=O)c4ccc(F)cc4Cl)cc23)CC1`, the melting point lay in the range of 212 to 222 °C.

For the molecule `CCN1CC=C(c2c[nH]c3ccc(NC(=O)c4ccc(F)cc4)cc23)CC1`, the melting point is 127 to 135 °C (dec.).

Turning to `CN1CC=C(c2c[nH]c3ccc(NC(=O)c4ccco4)cc23)CC1`, the melting point was 190 °C (dec.).

Take `CN1CC=C(c2c[nH]c3ccc(NC(=O)c4cccs4)cc23)CC1`: the melting point was 229 to 233 °C (dec.).

As for `CC(=O)Nc1ccc2[nH]cc(C3CCN(C)CC3)c2c1`, the melting point is 161 to 165 °C (dec.).

`CCC(=O)Nc1ccc2[nH]cc(C3CCN(C)CC3)c2c1.O=C(O)/C=C/C(=O)O`: the melting point is 88 to 92 °C (dec.).

As to `CN1CCC(c2c[nH]c3ccc(NC(=O)C(C)(C)C)cc23)CC1`, the melting point was 214 to 216 °C (dec.).

Turning to `CC(=O)c1ccc2[nH]c3c(c2c1)CC(N(C)C)CC3` (stereo not shown), the melting point lay within 181 to 182 °C.

As to `CN(C)[C@@H]1CCc2c([nH]c3ccc(Br)cc23)C1.I`, the melting point was determined as 252 °C.

Regarding `Br.C=C(C)C(=O)Nc1ccc2[nH]c3c(c2c1)CC(N(C)C)CC3` (stereo not shown), the melting point is 236 to 238 °C.

`Br.CN(C)C1CCc2[nH]c3ccc(NC(=O)C4CC4)cc3c2C1` (stereo not shown) came in with a melting point of 216 to 218 °C.

As to `Br.CN(C)C1CCc2[nH]c3ccc(NC(=O)C4CCC4)cc3c2C1` (stereo not shown), the melting point was in the range of 214 to 216 °C.

`Br.CN(C)C1CCc2[nH]c3ccc(NC(=O)C4CCCCC4)cc3c2C1` (stereo not shown) displayed a melting point of 224 to 226 °C.

The molecule `Cl.NC1CCc2[nH]c3ccc(NC(=O)c4ccc(F)cc4)cc3c2C1` (stereo not shown) showed a melting point of 252 to 255 °C.

Turning to `Cl.O=C(Nc1ccc2[nH]c3c(c2c1)CC(NCCc1ccccc1)CC3)c1ccc(F)cc1` (stereo not shown), the melting point fell in the range of 207 to 208 °C.

`Cl.O=C(Nc1ccc2[nH]c3c(c2c1)CC(NCCc1ccc(F)cc1)CC3)c1ccc(F)cc1` (stereo not shown): the melting point is 210 to 211 °C.

On to `NC1CCc2[nH]c3ccc(O)cc3c2C1` (stereo not shown), for which the melting point was 230 °C (dec.).

Take `Cl.Oc1ccc2[nH]c3c(c2c1)CC(NCCc1ccccc1)CC3` (stereo not shown): the melting point was 178 to 180 °C.

For the molecule `Cl.Oc1ccc2[nH]c3c(c2c1)CC(NCCc1ccc(F)cc1)CC3` (stereo not shown), the melting point was 160 °C (dec.).

`Cl.Clc1ccc(CCNC2CCc3[nH]c4ccc(OCc5ccccc5)cc4c3C2)cc1` (stereo not shown) came in with a melting point of 238 to 240 °C.

For `Cl.Cn1cc(CCNC2CCc3[nH]c4ccc(O)cc4c3C2)cn1` (stereo not shown), the melting point was 286 °C (dec.).

Consider `CC(C)n1cc(CCNC2CCc3[nH]c4ccc(O)cc4c3C2)cn1.Cl` (stereo not shown), for which the melting point fell in the range of 251 to 253 °C.

Regarding `CC(C)N1CCC(c2c[nH]c3ccc(NS(C)(=O)=O)cc23)CC1` (as salt: salt), the melting point was in the range of 104 to 108 °C.

For the molecule `CC(=O)c1ccc2[nH]cc(C3CCN(C)CC3)c2c1.Cl.O` (hydrate or solvate), the melting point was found to be 65 °C.

The values are drawn from patent US6380201B1, “Methods of treating or ameliorating the symptoms of common cold or allergic rhinitis with serotonin 5-HT1F agonists” (Eli Lilly and Company, priority 1997, dated 2002).
